As a reminder, the inhibition is the change of the read-out against control, counted positive when it falls.

From publication PMC8790593, “Synthesis of broad-specificity activity-based probes for exo-β-mannosidases” (Organic & Biomolecular Chemistry, 2021) come the findings set out here.

Like-named read-outs stand apart in the source and are kept apart here.

Common to all, as to type: biochemical
Holding throughout (settings): read-out: % inhibition at 1 mM

The target of test [1] is T1, CmMan5A (Cellvibrio mixtus, UniProt Q6QT42).
T1 construct: gene man5A; recombinant, codon-optimised gene in pET24a (NdeI/XhoI), C-terminal 6xHis, E. coli; matches previously crystallised form; GH5
T1 sequence (Q6QT42 26-456): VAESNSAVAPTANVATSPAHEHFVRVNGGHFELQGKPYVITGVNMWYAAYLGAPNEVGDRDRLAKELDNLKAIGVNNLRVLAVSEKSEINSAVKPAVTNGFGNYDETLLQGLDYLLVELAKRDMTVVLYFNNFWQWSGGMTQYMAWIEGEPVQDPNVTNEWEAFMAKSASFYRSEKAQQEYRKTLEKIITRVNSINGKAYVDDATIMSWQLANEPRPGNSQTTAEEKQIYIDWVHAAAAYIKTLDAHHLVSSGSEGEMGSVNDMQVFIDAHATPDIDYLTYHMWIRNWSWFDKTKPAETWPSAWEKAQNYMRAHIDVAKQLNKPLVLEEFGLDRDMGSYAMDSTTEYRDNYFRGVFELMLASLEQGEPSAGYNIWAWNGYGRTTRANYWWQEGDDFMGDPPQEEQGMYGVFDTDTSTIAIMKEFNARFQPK
Description: residual activity with 4MU-beta-Man after preincubation; intact MS.

Test [2] has as its target T2, BsGH164 (Bacteroides salyersiae, UniProt I9SUA3).
T2 construct: gene HMPREF1071_03408; recombinant pET28-His6-BsGH164, E. coli, His6 kept; GH164 exo-beta-mannosidase
T2 sequence (I9SUA3 20-673): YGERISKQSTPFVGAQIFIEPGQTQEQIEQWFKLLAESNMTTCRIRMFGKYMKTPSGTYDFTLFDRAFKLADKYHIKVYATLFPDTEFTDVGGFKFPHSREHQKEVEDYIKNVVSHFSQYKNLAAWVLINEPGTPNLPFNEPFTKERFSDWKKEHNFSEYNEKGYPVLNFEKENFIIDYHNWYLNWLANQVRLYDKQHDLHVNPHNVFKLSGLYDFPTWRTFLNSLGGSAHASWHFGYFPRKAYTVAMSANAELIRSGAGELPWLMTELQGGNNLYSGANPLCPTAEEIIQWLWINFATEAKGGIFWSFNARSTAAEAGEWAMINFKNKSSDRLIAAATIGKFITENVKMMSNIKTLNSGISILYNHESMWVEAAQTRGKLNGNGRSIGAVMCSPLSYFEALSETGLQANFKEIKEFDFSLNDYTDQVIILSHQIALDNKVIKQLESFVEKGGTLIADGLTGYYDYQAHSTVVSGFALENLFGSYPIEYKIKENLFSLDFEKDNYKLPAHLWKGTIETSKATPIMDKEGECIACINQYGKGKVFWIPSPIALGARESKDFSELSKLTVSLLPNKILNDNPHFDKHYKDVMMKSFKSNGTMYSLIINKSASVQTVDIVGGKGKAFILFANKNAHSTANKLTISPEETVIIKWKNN
Description: residual activity with 4MU-beta-Man after preincubation; covalent crystal structure ([…] A) and intact MS.

Test [3] addresses T1, CmMan5A. The test is described as above.
A further test deals with T3, BtMan2A (Bacteroides thetaiotaomicron, UniProt Q8AAK6).
T3 construct: gene BT_0458; recombinant pET28a-BtMan2A-His6, E. coli, His tag kept; GH2 exo-beta-mannosidase
T3 sequence (Q8AAK6 26-864): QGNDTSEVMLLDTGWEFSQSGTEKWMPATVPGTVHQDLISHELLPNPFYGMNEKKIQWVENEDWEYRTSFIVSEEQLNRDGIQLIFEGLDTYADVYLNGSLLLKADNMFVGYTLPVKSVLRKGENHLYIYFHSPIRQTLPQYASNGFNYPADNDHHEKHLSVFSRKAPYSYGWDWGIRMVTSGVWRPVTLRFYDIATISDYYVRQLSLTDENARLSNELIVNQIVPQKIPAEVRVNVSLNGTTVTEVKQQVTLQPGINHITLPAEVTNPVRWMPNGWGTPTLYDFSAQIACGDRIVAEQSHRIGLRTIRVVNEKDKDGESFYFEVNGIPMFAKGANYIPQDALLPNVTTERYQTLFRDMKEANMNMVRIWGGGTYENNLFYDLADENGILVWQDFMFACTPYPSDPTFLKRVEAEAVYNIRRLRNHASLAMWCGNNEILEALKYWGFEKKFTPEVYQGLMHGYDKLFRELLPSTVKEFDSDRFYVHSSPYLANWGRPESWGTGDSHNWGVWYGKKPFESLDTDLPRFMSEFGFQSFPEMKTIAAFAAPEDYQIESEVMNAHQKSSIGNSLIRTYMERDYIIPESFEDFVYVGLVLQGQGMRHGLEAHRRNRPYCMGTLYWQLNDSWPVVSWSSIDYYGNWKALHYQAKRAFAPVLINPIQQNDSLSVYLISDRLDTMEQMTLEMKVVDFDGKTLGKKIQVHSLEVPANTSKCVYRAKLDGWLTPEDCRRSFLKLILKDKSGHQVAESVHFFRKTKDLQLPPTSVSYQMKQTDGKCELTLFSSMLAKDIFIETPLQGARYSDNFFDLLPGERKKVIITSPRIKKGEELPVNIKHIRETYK
The description is as above.

Test [4] deals with T2, BsGH164. The test is described as above. This is another data set of the same source.

Take `OC[C@@H]1[C@@H](O)[C@H](O)[C@H](O)[C@@H]2O[C@H]12` [compound 1, β-D-manno-cyclophellitol]: the inhibition at 1000 µM amounted to 20% on CmMan5A [1] and 76% at BsGH164 [2].
For the compound `[N-]=[N+]=NCCCCCCCCN1[C@@H]2[C@H](CO)[C@@H](O)[C@H](O)[C@H](O)[C@@H]21` (stereo partly drawn) [compound 3, N-octylazido aziridine 3], the inhibition at 1000 µM at CmMan5A [3] and on BtMan2A was 85% each time.
`OC[C@@H]1[C@@H](O)[C@H](O)[C@H](O)[C@@H]2N[C@H]12` [compound 2, β-D-manno-cyclophellitol aziridine]: the inhibition at 1000 µM at CmMan5A [1] stood at 20%; on BsGH164 [4] it was 30%.
